Reference: patent publication US8129137B2, “Two-photon probe for real-time monitoring of intracellular free zinc ions, method for preparing the probe and method for real-time monitoring of intracellular free zinc ions using the probe” (Korea University Industrial & Academic Collaboration …, priority 2008, dated 2012)
Values after ≈ are worked out from the molar mass of the structure shown.

Experiments:
[1] = Measurement of water solubility; format: physicochemical; settings: kinetic from dmso stock, H2O, 0.2% DMSO, maximum concentration in the linear region of fluorescence intensity vs probe concentration
Protocol: A small amount of each of the two-photon probes (AZn2 and AZn1) prepared in Examples 1 and 2 was dissolved in DMSO to prepare a stock solution ([…]). The solution was diluted to 6.0×10^−3˜6.0×10^−5 M and added to a cuvette containing 3.0 mL of H2O by using a micro syringe. In all cases, the concentration of DMSO in H2O was maintained to be 0.2%.
FIGS. 1a through 1d are plots showing variations in the fluorescence intensity of the two-photon probes at different concentrations.
The plots of FIGS. 1b and 1d show variations in the fluorescence intensity of AZn2 and AZn1 as a function of the probe concentration, respectively, and have a profile in which the fluorescence intensity increases linearly at low concentrations. […] The maximum concentration in the linear region was taken as the water solubility. The water solubilities of the two probes were all 3.0 μM.

[2] = Dissociation constants for Zn2+ from one- and two-photon fluorescence titration; format: binding
Protocol: MOPS buffer solutions (30 mM, pH 7.2, 0.1 M KCl) containing different amounts of ZnSO4 and 10 mM EGTA were prepared.
The concentration of free Zn^2+ ([Zn^2+]free) was calculated from KZn−EGTA^app, [EGTA]free, and [Zn^2+]total using Equation 1: [Zn^2+]free=[Zn^2+]total/(αZn×KZn−EGTA^app×[EGTA]free) (1) where KZn−EGTA^app=KZn−EGTA/αZnαEGTA, αZn=1+10^(pH−pK^1^)+10^(2pH−pK^1^−pK^2^)+10^(3pH−pK^1^−pK^2^−pK^3^) . . . , αEGTA=1+10^(pK^1^−pH+0.11)+10^(pK^1^+pK^2^−2pH+0.22)+10^(pK^1^+pK^2^+pK^3^−3pH+0.33) . . . , and [EGTA]free=[EGTA]total−[Zn^2+]total. Therefore,
Then, the stability constant (KZn−EGTA) of the EGTA−Zn^2+ complex was obtained by the known method. For EGTA (pH 7.2, 0.1 M KCl, 25° C.), pK1, pK2, pK3 and log^K^Zn−EGTA were 9.40, 8.79, 2.70 and 12.6, respectively. […]
In order to determine accurate dissociation constants for the two-photon probes, fluorescence titration curves were obtained from FIGS. 3a and 3e using Equation 2:
[formula] where F is the fluorescence intensity, Fmax is the maximum fluorescence intensity, Fo is the fluorescence intensity in the absence of Zn^2+, and [Zn^2+]free is the concentration of free Zn^2+.
The Kd value that best fits the titration curve ([…]) with Equation 2 was calculated by using the Excel program. […]

[3] = Fluorescence enhancement with varying Zn2+ concentrations; settings: for FEF^OP, fluorescence enhancement factor by one-photon process / FEF^TP, fluorescence enhancement factor by two-photon process: (F−Fmin)/Fmin, MOPS buffer pH 7.2, presence of Zn2+
Protocol: The one-photon absorption and emission spectra and two-photon emission spectra of the two-photon probes AZn2 and AZn1 were measured with varying Zn^2+concentrations, and the results are shown in FIGS. 3a through 3f.
As can be known from FIGS. 3a through 3f, when small increments of Zn^2+were added to AZn1 and AZn2 in MOPS buffer solution (30 mM, pH 7.2, /=0.10), the one- and two-photon excitation fluorescence (emission) intensity increased gradually without affecting the absorption spectra, presumably due to the blocking of the photo-induced electron transfer (PET) process by the complexation with Zn^2+.
The fluorescence enhancement factors [FEF=(F−Fmin)/Fmin] of the two-photon probe AZn2 measured for one- and two-photon processes were 2.5-fold larger than those of the two-photon probe AZn1 as a result of the lower fluorescence quantum yield (Φ) in the absence, and higher Φ in the presence, of excess Zn^2+. These analytical results can be more easily understood from the data in Table 2.

[4] = Two-photon cross section and action spectra; format: physicochemical; settings: MOPS buffer pH 7.2, presence of Zn2+; 780 nm
Protocol: The two-photon cross section (δ) was determined by using femto second (fs) fluorescence measurement technique.
The intensities of the two-photon induced fluorescence spectra of the reference and the sample probe were measured, and the two-photon cross section of the sample probe was calculated according to Equation 3:
[formula] wherein the subscripts s and r represent sample and reference molecules, respectively, δ represents the two-photon cross section, S represents the strength of signals collected by a CCD detector, φ represents the fluorescence quantum efficiency, φrepresents the total fluorescence collection efficiency of an experimental system, c represents the number density of the molecules within each of the solutions, and δr represents the two-photon cross section of reference molecules.
Referring to FIG. 9, the two-photon action spectra of the Zn^2+ complexes with AZn1 and AZn2 in the buffer solutions indicated a φδ value of ˜90 GM at 780 nm, 4˜24-fold larger than those of TSQ and FluZin-3.

[5] = One-photon fluorescence intensity as a function of pH; format: physicochemical; settings: biologically relevant pH; 1 μM probe, 30 mM MOPS, 100 mM KCl
Protocol: FIGS. 8a and 8b show the one-photon fluorescence intensities of AZn1 and AZn2 (1 μM for each), respectively, as a function of pH when free Zn^2+ were absent (∘) and present at a concentration of 1 μM (▪) in mixed solutions of 30 mM MOPS and 100 mM KCl.

| Structure (SMILES) | solubility [1] [µM] | detection limit for Zn2+ [2] | FEF^OP, fluorescence enhancement factor by one-photon process [3] | FEF^TP, fluorescence enhancement factor by two-photon process [3] | FEF (one- and two-photon) relative to AZn1 ([3]; larger than those of AZn1) [fold] | δ, peak two-photon cross section [4] [GM] | φδ, two-photon action cross section [4] [GM] | pH sensitivity of fluorescence [5] |
| --- | --- | --- | --- | --- | --- | --- | --- | --- |
| COc1cc(NC(=O)CN(C)c2ccc3cc(C(C)=O)ccc3c2)ccc1NCCN(Cc1ccccn1)Cc1ccccn1 [AZn2] | 3 (≈ 1.81 µg/mL) | sub-nM range | 54 | 52 | 2.5 | 140 | 95 | pH insensitivity |
| Nc1ccc(NCCN(Cc2ccccn2)Cc2ccccn2)cc1 [AZn1] | 3 (≈ 1 µg/mL) | sub-nM range | 21 | 24 | – | 210 | 86 | pH insensitivity |
